Source: patent publication US20210163937A1, “[…] GENOME-EDITED CELLS” (B.R.A.I.N. Biotechnology Research and Information Network AG, priority 2018, published 2021)

Assays:
Assay type in all cases: cell-based, human
[1] = system: HaCaT-LRRC8A−/− knock-out (KO) cells; assay: Blasticidin tolerance, growth determined microscopically
Protocol: (§1) In order to determine the tolerance against the antibiotic blasticidin, HaCaT wildtype keratinocytes (VVT; Boukamp, et al.1988, The Journal of Cell Biology, 106(3):761-771.) as well as HaCaT-LRRC8A^−/− knock-out (KO) cells were treated with different concentrations of blasticidin and growth was determined microscopically for several days (FIG. 2). […] As previously shown for KBM-7cells^10, the LRRC8D subunit is also required for blasticidin uptake in HaCaT cells (FIG. 2A).

[2] = system: HaCaT wildtype keratinocytes; assay: as above; conditions: 4 μg/ml blasticidin, HaCaT-WT cells
Protocol: as §1

HaCaT cells [3] = assay: Co-editing of LRRC8D and EMX1 with blasticidin enrichment, Sanger sequencing and ICE analysis; conditions: transfected HaCaT cells treated with blasticidin
Protocol: The functionality of the above-described co-editing system was tested by using EMX1 (Empty Spiracles Homeobox 1) as gene-of-interest and LRRC8D as blasticidin resistance-mediating gene. EMX1 is a commonly used reference gene in CRISPR-based research^23. Instead of LRRC8A, another member of the LRRC8 gene family, LRRC8D, was used. First, the coding sequences of two sgRNAs targeting the LRRC8D and EMX1 gene were cloned into an expression plasmid containing the coding sequence for the Cas9 nuclease (FIGS. 4 and 5A). Then HaCaT cells were transfected with the expression plasmids and cells were either treated or not treated with blasticidin (FIG. 5A). After several days of cultivation, genomic DNA was extracted and used in PCR to amplify the genomic-region of the LRRC8D and EMX gene. The PCR products were analyzed by Sanger sequencing and subsequent ICE (Inference of CRISPR Edits)^24 analysis to determine the genetic modifications occurring in the treated and non-treated HaCaT cells (FIG. 5B). Strikingly, when the transfected HaCaT cell pool was not treated with blasticidin, no editing event could be detected; neither in the EMX1 nor in the LRRC8D gene.

HEK293 cells [4] = assay: Co-editing of LRRC8A and EMX1 with blasticidin enrichment, ICE analysis; conditions: HEK293, after blasticidin
Protocol: (§2) To further increase the editing rate of the gene of interest, the two single sgRNA cassettes of the gene of interest and the LRRC8A or LRRC8D selection gene (FIG. 6A) can be transcriptionally coupled, for example by coupling the sgRNAs via ribozyme structures (FIG. 6B) or by other processing sites such as tRNAs (FIG. 6C). […] Then HaCaT cells were transfected with the corresponding expression plasmids and cells were treated and analyzed as described in Example 4.
To confirm the suitability of the co-editing strategy of the present invention also for a different cell type, the same experimental setup was applied for HEK293 cells (FIG. 7B). Again, initial editing of the gene of interest EMX1 was also very low in HEK293 cells. By applying the co-editing strategy as presented above for HaCaT cells, it was also possible to increase the editing rates to approx. 60% for EMX1 and approx. 90% for LRRC8A in HEK293 cells (using uncoupled sgRNA expression constructs) (FIG. 7B).
Again, by transcriptional coupling it was possible to further increase editing rates for EMX1 from 62% to 74% (FIG. 7B).

HEK293 cells [5] = assay: HR-dependent LRRC8A gene disruption, cell growth under blasticidin; conditions: HEK293, Cas9 + intronic LRRC8A sgRNA, treated 72 h after transfection
Protocol: Next, it was tested whether the above-described strategy (Example 6, FIG. 8) can indeed be employed to enrich HR-capable cells (or conversely to get rid of cells which have performed NHEJ). First, a HDR donor template was designed (FIG. 9A), which creates a modified, non-functional LRRC8A sequence after successful insertion via HR. The HDR donor template is composed of left and right HR flaks, which are complementary to intronic and exon-3 LRRC8A sequence, respectively. The exon-3 sequence used in the HDR donor template carries two modifications to create non-functional LRRC8A: (i) Mutation of the translational start site ATG to ATT and (ii) deletion of one nucleotide (Guanin) to create LRRC8A frameshift. To also test whether foreign or recombinant DNA sequences can be inserted into the LRRC8A locus as well, the restriction site for the Kpnl restriction enzyme was included into the HDR donor template. To prevent the repeated cutting of the Cas9 enzyme (which would prevent successful HDR donor template insertion), the spacer sequence of the sgRNA (which is used to induce the DSB at the intronic region of LRRC8A) was modified by mutating the PAM motif and the seed region. […]

HaCaT cells [6] = assay: Co-editing of LRRC8A and EMX1 with blasticidin enrichment, ICE analysis; conditions: for EMX1 editing: after blasticidin
Protocol: as §2
The initial editing rates for EMX1 and LRRC8A were determined 48 h post-transfection and were very low (<5%) (FIG. 7A). Treatment with blasticidin led to drastic increase of LRRC8A editing (>95%), which was equally high independent of the sgRNA expression construct showing efficient enrichment of LRRC8A-KO cells using blasticidin (FIG. 7A). When sgRNA expression cassette of EMX1 was independent from that of LRRC8A, EMX1 editing was increased from 3 to 7%. Strikingly, by coupling the two sgRNA cassettes of EMX1 and LRRC8A via ribozymes, EMX1 editing could drastically be increased from 7% to >70% (FIG. 7A). This clearly proves that the above-described strategy to increase low editing events by transcriptional coupling is functioning.

[7] = system: non-pure LRRC8A−/− HaCaT cell clone; assay: Removal of wildtype cells from a mixed LRRC8A−/− cell pool, PCR of genomic DNA; conditions: single pulse 4 μg/ml blasticidin for 24 h, then blasticidin-free medium
Excerpt: Creating single cell clones is one of the most challenging tasks in all fields of genome engineering. […] Therefore it was of interest to analyze whether the LRRC8A-mediated blasticidin resistance could be a very easy method to get rid of non-edited wildtype cells. To mimic this issue, a non-pure LRRC8A^−/− HaCaT cell clone, which contained the desired 300 bp LRRC8A genomic deletion as well as few undesired HaCaT wildtype cells, was chosen and either treated or not treated with a single blasticidin pulse (4 μg/ml blasticidin applied for 24 h) (FIG. 3A). Then cultivation medium was changed and cells were cultivated in absence of blasticidin. Genomic DNA was isolated and PCR was performed to visualize the genomic deletion of LRRC8A in knock-out cells and/or the non-deleted, intact LRRC8A gene of wildtype cells (FIG. 3B). […] Strikingly, treatment with blasticidin prevented this effect: No
This also proves that disruption of the LRRC8A-mediated blasticidin resistance can not only be used to create blasticidin-resistant cells but that it is also suited to get rid of unwanted wildtype cells during genome engineering.

[8] = system: HaCaT knock-out cells devoid of LRRC8D; assay: Blasticidin tolerance of LRRC8D knock-out cells; conditions: LRRC8D gene knock-out
Excerpt: FIG. 2: (A) Microscopic analysis of cytotoxic effect of blasticidin on HaCaT wildtype keratinocytes (VVT) (upper panel), HaCaT knock-out cells devoid of LRRC8A (LRRC8A^−/− KO) and HaCaT knock-out cells devoid of LRRC8D (LRRC8D^−/− KO). (B) Graphical display of survival rate of HaCaT wildtype vs. LRRC8A knock-out cells in presence of blasticidin.
as §1

## CN(CC[C@H](N)CC(=O)N[C@H]1C=C[C@H](n2ccc(N)nc2=O)O[C@@H]1C(=O)O)C(=N)N [blasticidin]
[1]
  survival of cells under blasticidin treatment: survived the treatment
[2]
  growth of cells in presence of blasticidin: not able to grow anymore and died
HaCaT cells [3]
  editing percentage of the LRRC8D gene: 90%
  editing percentage of the co-edited EMX1 gene: 6%
HEK293 cells [4]; transcriptional coupling
  editing rate for EMX1: 74%
HEK293 cells [4]; uncoupled sgRNA expression constructs
  editing rate for LRRC8A: approx. 90%
HEK293 cells [5]; HDR donor template included
  cell growth under blasticidin treatment: cell growth was observed
HEK293 cells [5]; HDR template omitted
  cell growth under blasticidin treatment: no cell growth was observed
HaCaT cells [6]; after blasticidin treatment, independent of sgRNA expression construct
  LRRC8A editing: > 95%
HaCaT cells [6]; EMX1 sgRNA cassette independent from LRRC8A
  EMX1 editing: 7%
HaCaT cells [6]; sgRNA cassettes coupled via ribozymes HDV/HH
  EMX1 editing: > 70%
[7]
  PCR products of wildtype and knock-out cells after blasticidin treatment: only the PCR product of the pure knock-out cell clone was detectable
[8]
  blasticidin resistance of LRRC8D knock-out cells: resistant
